# Key:
# [1] = test system: c-MYC (dual labelled) (DNA, G4) TGAGGGTGGGTAGGGTGGGTAA; experiment: FRET melting
# [2] = test system: c-KIT1 (dual labelled) (DNA, G4) GGGAGGGCGCTGGGAGGGAGGG; experiment: FRET melting
# [3] = test system: c-KIT2 (dual labelled) (DNA, G4) GGGCGGGCGCGAGGGAGGGG; experiment: FRET melting
# [4] = test system: ds DNA (dual labelled) (DNA, duplex) CCAGTTCGTAGTAACCC/GGGTTACTACGAACTGG; experiment: FRET melting; settings: 50 mM K+, 50 mM potassium cacodylate pH 7.4
# [5] = test system: c-MYC (DNA, G4) TGAGGGTGGGTAGGGTGGGTAA; experiment: fluorescence titration; settings: 100 mM Tris-HCl pH 7.4, 25 °C; for KD: 100 mM K+, 1.0 µM ligand, DNA 0-6 equiv
# [6] = test system: c-KIT1 (DNA, G4) GGGAGGGCGCTGGGAGGGAGGG; experiment: fluorescence titration; settings: 100 mM K+; 100 mM Tris-HCl pH 7.4, 25 °C; 1.0 µM ligand, DNA 0-6 equiv
# [7] = test system: c-KIT2 (DNA, G4) GGGCGGGCGCGAGGGAGGGG; experiment: fluorescence titration; settings: 100 mM K+; 100 mM Tris-HCl pH 7.4, 25 °C; 1.0 µM ligand, DNA 0-6 equiv
# [8] = test system: ds DNA (DNA, duplex) CCAGTTCGTAGTAACCC/GGGTTACTACGAACTGG; experiment: fluorescence titration; settings: 100 mM K+; 100 mM Tris-HCl pH 7.4, 25 °C; 1.0 µM ligand, DNA 0-6 equiv
# [9] = test system: c-MYC (NMR oligonucleotide) (DNA, G4) TGAGGGTGGGTAGGGTGGGTAA; experiment: 1H NMR imino titration
# [10] = 50 mM K+, 50 mM potassium cacodylate pH 7.4, 1.0 µM ligand
SMILES,"binding [1, 10]","binding [2, 10]","binding [3, 10]",binding ([4]; 1.0 µM ligand),"ΔTm ([1]; 50 mM K+, 50 mM potassium cacodylate pH 7.4, 100 nM ligand, maximum measurable shift)","binding ([1]; no added K+, MQ water pH 7.4, saturation at 250 nM ligand)","ΔTm ([2]; 50 mM K+, 50 mM potassium cacodylate pH 7.4, 750 nM ligand, maximum measurable shift)","binding ([2]; no added K+, MQ water pH 7.4, saturation at 1 µM ligand)","ΔTm ([3]; 50 mM K+, 50 mM potassium cacodylate pH 7.4, 500 nM ligand, maximum measurable shift)","binding ([3]; no added K+, MQ water pH 7.4, saturation at 750 nM ligand)",binding ([4]; up to 1.0 µM ligand),KD [5],"binding ([5]; no added K+, 5.5-fold enhancement, 25 nm blue shift, Kd n.d.)",KD [6],KD [7],Kd [8],"binding ([9]; 100 mM K+, 25 mM Tris-HCl pH 7.4, 298 K, 100 µM DNA, binds minor conformation)","binding ([9]; no added K+, 25 mM Tris-HCl pH 7.4, 298 K, 100 µM DNA, binds minor conformation)","binding ([9]; 100 mM K+, 25 mM Tris-HCl pH 7.4, stabilizes minor conformation(s))"
C#Cc1ccc2c(c1)c1cc(C#C)ccc1n2CCCN(C)C,no,no,no,no,,,,,,,,,,,,,,,
CN(C)CCCNC(=O)c1ccc(-n2cc(-c3ccc4c(c3)c3cc(-c5cn(-c6ccc(C(=O)NCCCN(C)C)cc6)nn5)ccc3n4CCCN(C)C)nn2)cc1,,,,,22.7 ± 1.4 K,yes,39.4 ± 2.5 K,yes,23.2 ± 1.6 K,yes,no,300 ± 15 nM,yes,1380 ± 70 nM,1370 ± 60 nM,> 10000 nM,yes,yes,
CN(C)CCCn1c2ccc(-c3cn(-c4ccc(N)cc4)nn3)cc2c2cc(-c3cn(-c4ccc(N)cc4)nn3)ccc21,yes,,,,,,,,,,,> 20000 nM,,,,,,,yes

# — publication PMC4541407 (2015)
